# Source: patent publication US20230122344A1, “ANTAGONISTS OF THE MUSCARINIC ACETYLCHOLINE RECEPTOR M4” (Vanderbilt University, priority 2019, published 2023)
# Target: T1, Human M4 (Homo sapiens, UniProt P08173)
# T1 construct: expressed in transfected cells; host or cells: CHO-K1 (ATCC), co-transfected with chimeric G protein Gqi5
# T1 sequence (P08173 1-479): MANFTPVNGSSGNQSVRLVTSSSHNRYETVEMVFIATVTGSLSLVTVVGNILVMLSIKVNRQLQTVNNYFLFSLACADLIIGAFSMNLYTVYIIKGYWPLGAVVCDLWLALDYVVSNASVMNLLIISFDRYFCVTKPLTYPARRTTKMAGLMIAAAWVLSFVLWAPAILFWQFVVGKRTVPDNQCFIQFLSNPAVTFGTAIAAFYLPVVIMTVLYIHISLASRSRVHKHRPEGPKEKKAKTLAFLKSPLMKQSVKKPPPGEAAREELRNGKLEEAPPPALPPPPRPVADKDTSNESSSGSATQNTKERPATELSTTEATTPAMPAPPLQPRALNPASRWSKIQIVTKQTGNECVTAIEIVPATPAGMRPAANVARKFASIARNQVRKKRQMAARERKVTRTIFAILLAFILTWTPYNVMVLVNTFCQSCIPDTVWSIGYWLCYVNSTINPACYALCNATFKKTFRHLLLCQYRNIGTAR
# Assay: mAChR M4 cell-based functional assay (calcium flux, antagonism of EC80 acetylcholine response)
# Conditions: M4/Gqi5/CHO-K1 cells; for remaining activity at 30 µM: CHO-K1, % ACh maximum at 30 μM, read-out: Human M4 Emin; for IC50: decrease of response elicited by EC80 acetylcholine
# Protocol: Human or rat M4 cDNA, along with the chimeric G protein Gqi5, were transfected into Chinese hamster ovary (CHO-K1) cells purchased from the American Type Culture Collection using Lipofectamine2000. M4/Gqi5/CHO cells were grown in Ham's F-12 medium containing 10% heat-inactivated fetal bovine serum (FBS), 20 mM HEPES, 500 μg/mL G418 sulfate, and 200 μg/mL Hygromycin B.
# For high throughput measurement of agonist-evoked increases in intracellular calcium, CHO-K1 cells stably expressing muscarinic receptors were plated in growth medium lacking G418 and hygromycin at 15,000 cells/20 μL/well in Greiner 384-well black-walled, tissue culture (TC)-treated, clear-bottom plates (VWR). Cells were incubated overnight at 37° C. and 5% CO2. The next day, cells were washed using an ELX 405 (BioTek) with assay buffer; the final volume was then aspirated to 20 μL. Next, 20 μL of a 2.3 μM stock of Fluo-4/acetoxymethyl ester (Invitrogen, Carlsbad, Calif.), prepared as a 2.3 mM stock in DMSO and mixed in a 1:1 ratio with 10% (w/v) Pluronic F-127 and diluted in assay buffer, was added to the wells and the cell plates were incubated for 50 min at 37° C. and 5% CO2. Dye was removed by washing with the ELX 405 and the final volume was aspirated to 20 μL. Compound master plates were formatted in a 10 point concentration-response curve (CRC) format (1:3 dilutions) in 100% DMSO with a starting concentration of 10 or 1 mM using a BRAVO liquid handler (Agilent). Test compound CRCs were then transferred to daughter plates (240 nL) using the Echo acoustic plate reformatter (Labcyte, Sunnyvale, Calif.) and then diluted into assay buffer (40 μL) to a 2× stock using a Thermo Fisher Combi (Thermo Fisher Scientific, Waltham, Mass.).
# Calcium flux was measured using the Functional Drug Screening System (FDSS) 6000 or 7000 (Hamamatsu Corporation, Tokyo, Japan) as an increase in the fluorescent static ratio. Compounds were applied to cells (20 μL, 2×) using the automated system of the FDSS at 2 seconds into the protocol and the data were collected at 1 Hz. At 143 s, 10 μL of an EC20 concentration of the muscarinic receptor agonist acetylcholine was added (5×), followed by the addition of 12 μL of an EC80 concentration of acetylcholine at the 268 s time point (5×). Agonist activity was analyzed as a concentration-dependent increase in calcium mobilization upon compound addition. Positive allosteric modulator activity was analyzed as a concentration-dependent increase in the EC20 acetylcholine response. Antagonist activity was analyzed as a concentration-dependent decrease in the EC80 acetylcholine response; for the purposes of the tables herein, an IC50 (inhibitory concentration 50) was calculated as a concentration-dependent decrease of the response elicited by an EC80 concentration of acetylcholine. Concentration-response curves were generated using a four-parameter logistical equation in XLFit curve fitting software (IDBS, Bridgewater, N.J.) for Excel (Microsoft, Redmond, Wash.) or Prism (GraphPad Software, Inc., San Diego, Calif.) or the Dotmatics software platform (Dotmatics, Bishop's Stortford, UK).
# Compounds were synthesized as described above. Activity (IC50 and Emin) was determined in the mAChR M4 cell-based functional assay as described above and the data are shown in Table 2.
Compound,remaining activity at 30 µM,IC50,Human M4 Emin (% ACh maximum at 30 μM)
"[2H]C([2H])(C1CCOCC1)N1C[C@H]2C[C@H](Nc3nnc(N4CCC(F)(F)CC4)cc3C3CC3)C[C@H]2C1 [compound 28, (3aR,5s,6aS)-N-(4-cyclopropyl-6-(4,4-difluoropiperidin-1-yl)pyridazin-3-yl)-2-((tetrahydro-2H-pyran-4-yl)methyl-d2)octahydrocyclopenta[c]pyrrol-5-amine]",3%,186 nM,–
"COc1cc(-c2cc(F)ccc2C)nnc1N[C@H]1C[C@@H]2CN(CC3CCOCC3)C[C@@H]2C1 [compound 7, (3aR,5s,6aS)-N-(6-(5-fluoro-2-methylphenyl)-4-methoxypyridazin-3-yl)-2-((tetrahydro-2H-pyran-4-yl)methyl)octahydrocyclopenta[c]pyrrol-5-amine]",9%,6.84 nM,–
"OC1(CN2C[C@H]3C[C@H](Nc4nnc(-c5cc(F)ccc5F)cc4C(F)F)C[C@H]3C2)CCOCC1 [compound 78, 4-(((3aR,5s,6aS)-5-((4-(difluoromethyl)-6-(2,5-difluorophenyl)pyridazin-3-yl)amino)hexahydrocyclopenta[c]pyrrol-2(1H)-yl)methyl)tetrahydro-2H-pyran-4-ol]",4%,230 nM,–
"[2H]C([2H])(C1CCOCC1)N1C[C@H]2C[C@H](Nc3nnc(-c4cc(F)ccc4C)cc3C3CC3)C[C@H]2C1 [compound 26, (3aR,5s,6aS)-N-(4-cyclopropyl-6-(5-fluoro-2-methylphenyl)pyridazin-3-yl)-2-((tetrahydro-2H-pyran-4-yl)methyl-d2)octahydrocyclopenta[c]pyrrol-5-amine]",3%,263 nM,–
"[2H]C([2H])(C1CCOCC1)N1C[C@H]2C[C@H](Nc3nnc(-c4cc(F)cc(F)c4F)cc3C3CC3(F)F)C[C@H]2C1 (stereo partly drawn) [compound 33, (3aR,5s,6aS)-N-(4-(2,2-difluorocyclopropyl)-6-(2,3,5-trifluorophenyl)pyridazin-3-yl)-2-((tetrahydro-2H-pyran-4-yl)methyl-d2)octahydrocyclopenta[c]pyrrol-5-amine]",3%,6.4 nM,–
"COc1cc(-c2ccc3nn(C)cc3c2)nnc1N[C@H]1C[C@@H]2CN(CC3CCOCC3)C[C@@H]2C1 [compound 5, (3aR,5s,6aS)-N-(4-methoxy-6-(2-methyl-2H-indazol-5-yl)pyridazin-3-yl)-2-((tetrahydro-2H-pyran-4-yl)methyl)octahydrocyclopenta[c]pyrrol-5-amine]",3%,3.89 nM,–
"[2H]C([2H])(C1CCOCC1)N1C[C@H]2C[C@H](Nc3nnc(-c4cc(F)ccc4C)cc3C3CCC3)C[C@H]2C1 [compound 31, (3aR,5s,6aS)-N-(4-cyclobutyl-6-(5-fluoro-2-methylphenyl)pyridazin-3-yl)-2-((tetrahydro-2H-pyran-4-yl)methyl-d2)octahydrocyclopenta[c]pyrrol-5-amine]",3%,34.5 nM,–
"[2H]C([2H])(C1CCOCC1)N1C[C@H]2C[C@H](Nc3nnc(-c4ccc5ccccc5c4)c(C)c3C)C[C@H]2C1 [compound 71, (3aR,5s,6aS)-N-(4,5-dimethyl-6-(naphthalen-2-yl)pyridazin-3-yl)-2-((tetrahydro-2H-pyran-4-yl)methyl-d2)octahydrocyclopenta[c]pyrrol-5-amine]",2%,12.7 nM,–

# Stronger by IC50, values ahead:
remaining activity at 30 µM,IC50,Human M4 Emin (% ACh maximum at 30 μM),Compound
3%,2.36 nM,–,"Cc1cc(N[C@H]2C[C@@H]3CN(CC4CCOCC4)C[C@@H]3C2)nnc1-c1cc(F)ccc1Cl [compound 14, (3aR,5s,6aS)-N-(6-(2-chloro-5-fluorophenyl)-5-methylpyridazin-3-yl)-2-((tetrahydro-2H-pyran-4-yl)methyl)octahydrocyclopenta[c]pyrrol-5-amine]"
–,1.64 nM,2%,"Fc1cc(F)c(F)c(-c2nnc(N[C@H]3C[C@@H]4CN(CC5CCCOC5)C[C@@H]4C3)cc2C(F)F)c1 (single isomer, unassigned) [compound 49]"
2%,3.12 nM,–,"OC1(CN2C[C@H]3C[C@H](Nc4cc(C(F)F)c(-c5cc(F)cc(F)c5F)nn4)C[C@H]3C2)CCOCC1 [compound 55, 4-(((3aR,5s,6aS)-5-((5-(difluoromethyl)-6-(2,3,5-trifluorophenyl)pyridazin-3-yl)amino)hexahydrocyclopenta[c]pyrrol-2(1H)-yl)methyl)tetrahydro-2H-pyran-4-ol]"
3%,1.2 nM,–,"Cc1ccc(F)cc1-c1cc(C(F)F)c(N[C@H]2C[C@@H]3CN(CC4CCOCC4)C[C@@H]3C2)nn1 [compound 59, (3aR,5s,6aS)-N-(4-(difluoromethyl)-6-(5-fluoro-2-methylphenyl)pyridazin-3-yl)-2-((tetrahydro-2H-pyran-4-yl)methyl)octahydrocyclopenta[c]pyrrol-5-amine]"
3%,1.37 nM,–,"[2H]C([2H])(C1CCOCC1)N1C[C@H]2C[C@H](Nc3cc(C(F)F)c(-c4cc(F)cc(F)c4F)nn3)C[C@H]2C1 [compound 40, (3aR,5s,6aS)-N-(5-(difluoromethyl)-6-(2,3,5-trifluorophenyl)pyridazin-3-yl)-2-((tetrahydro-2H-pyran-4-yl)methyl-d2)octahydrocyclopenta[c]pyrrol-5-amine]"
3%,1.22 nM,–,"[2H]C([2H])(C1CCOCC1)N1C[C@H]2C[C@H](Nc3nnc(-c4cccc(F)c4)cc3C)C[C@H]2C1 [compound 21, (3aR,5s,6aS)-N-(6-(3-fluorophenyl)-4-methylpyridazin-3-yl)-2-((tetrahydro-2H-pyran-4-yl)methyl-d2)octahydrocyclopenta[c]pyrrol-5-amine]"
3%,0.33 nM,–,"Fc1cc(F)c(F)c(-c2nnc(N[C@H]3C[C@@H]4CN(CC5CCOCC5)C[C@@H]4C3)cc2C(F)F)c1 [compound 41, (3aR,5s,6aS)-N-(5-(difluoromethyl)-6-(2,3,5-trifluorophenyl)pyridazin-3-yl)-2-((tetrahydro-2H-pyran-4-yl)methyl)octahydrocyclopenta[c]pyrrol-5-amine]"
3%,0.5 nM,–,"Cc1cc(N[C@H]2C[C@@H]3CN(CC4CCOCC4)C[C@@H]3C2)nnc1-c1cc(F)cc(F)c1F [compound 35, (3aR,5s,6aS)-N-(5-methyl-6-(2,3,5-trifluorophenyl)pyridazin-3-yl)-2-((tetrahydro-2H-pyran-4-yl)methyl)octahydrocyclopenta[c]pyrrol-5-amine]"
1%,3.42 nM,–,"OC1(CN2C[C@H]3C[C@H](Nc4cc(C(F)F)c(-c5cc(F)cc(F)c5F)nn4)C[C@H]3C2)CCCCC1 [compound 54, 1-(((3aR,5s,6aS)-5-((5-(difluoromethyl)-6-(2,3,5-trifluorophenyl)pyridazin-3-yl)amino)hexahydrocyclopenta[c]pyrrol-2(1H)-yl)methyl)cyclohexan-1-ol]"
